We go through three compounds from patent publication EP0307071B1, “Flavor and fragrance enhancing enzymes” (YISSUM RESEARCH DEVELOPMENT COMPANY OF THE HEBREW …, priority 1987, dated 1989).

In the experiment the target is T1, Aspergillus niger B1 endo-β-glucosidase B1 (strain CMI CC 324626) preparation (Aspergillus niger, UniProt A2RAL4).
T1 sequence (A2RAL4 20-860): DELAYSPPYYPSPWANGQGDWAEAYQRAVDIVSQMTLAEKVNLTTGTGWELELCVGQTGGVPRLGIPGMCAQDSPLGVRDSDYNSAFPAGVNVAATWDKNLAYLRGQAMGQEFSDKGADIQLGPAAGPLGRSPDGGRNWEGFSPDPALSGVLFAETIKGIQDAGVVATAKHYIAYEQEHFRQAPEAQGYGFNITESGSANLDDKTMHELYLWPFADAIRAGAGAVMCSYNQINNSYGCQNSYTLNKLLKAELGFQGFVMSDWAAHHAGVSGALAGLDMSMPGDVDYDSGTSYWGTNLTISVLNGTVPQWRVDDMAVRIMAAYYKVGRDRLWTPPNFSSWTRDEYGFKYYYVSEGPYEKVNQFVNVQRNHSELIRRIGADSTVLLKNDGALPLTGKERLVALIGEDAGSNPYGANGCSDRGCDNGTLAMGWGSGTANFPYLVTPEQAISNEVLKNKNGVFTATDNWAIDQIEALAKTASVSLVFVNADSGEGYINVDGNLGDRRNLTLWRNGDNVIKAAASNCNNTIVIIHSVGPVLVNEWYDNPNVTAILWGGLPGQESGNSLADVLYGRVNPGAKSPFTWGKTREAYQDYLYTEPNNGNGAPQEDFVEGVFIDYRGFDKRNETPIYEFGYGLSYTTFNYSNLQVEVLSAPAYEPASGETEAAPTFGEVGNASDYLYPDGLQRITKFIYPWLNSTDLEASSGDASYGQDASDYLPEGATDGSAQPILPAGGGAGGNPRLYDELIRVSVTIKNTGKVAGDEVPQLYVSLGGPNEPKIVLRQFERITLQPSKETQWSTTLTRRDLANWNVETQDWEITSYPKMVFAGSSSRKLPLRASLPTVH
As to the kind of experiment: β-glucosidase kinetics and inhibition by standard procedures (PNPG or geranyl β rutinoside as substrates). The note with it: remaining enzyme activity. The format is biochemical, Aspergillus niger B1 strain CMI CC 324626. The protocol: The concentrations of free and bound monoterpenes are preferably determined according to the method of Dimitriadis et. al. (Amer J. Enol. Vitic. 35:66-71 (1984) which reference is herein incorporated by reference). The activity of the endo-β-glucosidase of the present invention is preferably determined by standard methods using either PNPG or geranyl beta rutinoside as substrates.
The β-glucosidase activity was assayed by incubating 25 µl of enzyme preparation in 1 ml of 1 mM PNPG (p-nitrophenyl-β-D-glucopyranoside) for 2 minutes at 35°. The reaction was terminated by adding 200 µl of 1M Na2CO3 and the OD was read at 399 nm.
The supernatant and the filtered samples were then separately incubated with 20 ml of 1 mg/l of wine glycosides for 20 hours at 30°. Free monoterpenes were then analyzed according to Dimitriadis et al. (Amer J. Enol. Vitic. 35:66-71 (1984)). Characterization of the A. niger B1 β-glucosidase B1 activity included the determination of pH, ionic strength, temperature, and ethanol response curves, Km, Vmax and Ki for glucose, by standard procedures. In addition, the effect of various concentrations of grape juice (Muscat of Alexandria) sucrose, fructose and SO2 on the enzyme activity was determined by conventional methods. […]

Like-named read-outs stand apart in the source and are kept apart here.

Regarding SO2, the “Activity in the presence of 200ppm SO2” value (200ppm SO2) was found to be 100%.
`OC[C@H]1O[C@@](CO)(O[C@H]2O[C@H](CO)[C@@H](O)[C@H](O)[C@H]2O)[C@@H](O)[C@@H]1O` [sucrose]: the activity at 1 M (1M sucrose, read-out: Activity in the presence of 1M sucrose) is 90%.
For the compound `O=C(CO)[C@@H](O)[C@H](O)[C@H](O)CO` [Fructose, fructose], the activity at 1 M (1M Fructose, read-out: Activity in the presence of 1M Fructose) came out at 90%.
